The target in assay [1] is T1, Intercellular adhesion molecule (ICAM-1), Integrin alpha-L/beta-2 (Homo sapiens, UniProt P05107+P20701). Kind of assay: Inhibition of LFA-1 mediated JY-8 cell adhesion to ICAM-1, range (3-10). The class given is functional, cell-based.
Assay [2] addresses T2, Integrin alpha-L (Homo sapiens, UniProt P20701).
T2 sequence (P20701 whole entry): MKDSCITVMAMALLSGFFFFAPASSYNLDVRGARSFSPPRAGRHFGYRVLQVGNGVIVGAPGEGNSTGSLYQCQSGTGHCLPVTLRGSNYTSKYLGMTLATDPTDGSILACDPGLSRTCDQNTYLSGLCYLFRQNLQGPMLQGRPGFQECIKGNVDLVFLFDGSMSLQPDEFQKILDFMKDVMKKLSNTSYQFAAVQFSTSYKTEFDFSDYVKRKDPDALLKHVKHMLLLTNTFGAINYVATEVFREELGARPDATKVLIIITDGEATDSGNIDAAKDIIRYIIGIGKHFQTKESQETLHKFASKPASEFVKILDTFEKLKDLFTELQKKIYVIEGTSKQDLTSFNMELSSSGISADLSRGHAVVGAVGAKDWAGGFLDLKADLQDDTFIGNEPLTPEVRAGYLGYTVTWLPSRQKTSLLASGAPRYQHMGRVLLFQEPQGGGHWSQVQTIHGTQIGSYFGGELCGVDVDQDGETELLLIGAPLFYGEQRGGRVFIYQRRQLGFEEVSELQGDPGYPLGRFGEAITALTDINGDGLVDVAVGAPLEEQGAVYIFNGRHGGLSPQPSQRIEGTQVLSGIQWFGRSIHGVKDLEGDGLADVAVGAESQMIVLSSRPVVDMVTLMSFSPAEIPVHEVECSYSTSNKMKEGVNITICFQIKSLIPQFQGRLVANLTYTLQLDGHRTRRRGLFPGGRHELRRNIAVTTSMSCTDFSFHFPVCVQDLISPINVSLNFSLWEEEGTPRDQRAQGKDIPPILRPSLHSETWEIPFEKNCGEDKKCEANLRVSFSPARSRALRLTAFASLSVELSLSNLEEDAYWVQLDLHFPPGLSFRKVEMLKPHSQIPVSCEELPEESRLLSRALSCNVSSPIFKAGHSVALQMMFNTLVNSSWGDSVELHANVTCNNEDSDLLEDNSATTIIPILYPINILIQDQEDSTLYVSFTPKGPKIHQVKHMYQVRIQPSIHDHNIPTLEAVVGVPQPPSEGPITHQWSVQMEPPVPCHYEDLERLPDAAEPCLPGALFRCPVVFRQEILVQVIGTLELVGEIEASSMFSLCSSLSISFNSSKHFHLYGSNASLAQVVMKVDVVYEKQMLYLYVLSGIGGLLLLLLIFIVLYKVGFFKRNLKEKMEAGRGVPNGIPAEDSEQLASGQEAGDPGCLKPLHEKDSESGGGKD
Kind of assay: Inhibition of intercellular adhesion molecule-1 (ICAM-1) binding to recombinant LFA-1, range (6-10).

The target in assay [3] is T1, Intercellular adhesion molecule (ICAM-1), Integrin alpha-L/beta-2. Kind of assay: Inhibition of LFA-1 mediated JY-8 cell adhesion to ICAM-1, range (2-9). The class given is functional, cell-based.
Assay [4] concerns the target T2, Integrin alpha-L. Kind of assay: Inhibition of intercellular adhesion molecule-1 (ICAM-1) binding to recombinant LFA-1, range (6-9).
Assay [5] has as its target T2, Integrin alpha-L. Kind of assay: Inhibition of intercellular adhesion molecule-1 (ICAM-1) binding to recombinant LFA-1.
Assay [6] has as its target T2, Integrin alpha-L. Kind of assay: Inhibition of intercellular adhesion molecule-1 (ICAM-1) binding to recombinant LFA-1, range(140-150).
In assay [7] the target is T2, Integrin alpha-L. Kind of assay: Inhibition of intercellular adhesion molecule-1 (ICAM-1) binding to recombinant LFA-1, range(50-60).
The target of assay [8] is T1, Intercellular adhesion molecule (ICAM-1), Integrin alpha-L/beta-2. Kind of assay: Inhibition of LFA-1 mediated JY-8 cell adhesion to ICAM-1, range (30-170). The class given is functional, cell-based.
The target is the same in assay [9]. Kind of assay: Inhibition of LFA-1 mediated JY-8 cell adhesion to ICAM-1, range (2-30). The class given is functional, cell-based.
In assay [10] the target is T2, Integrin alpha-L. Kind of assay: Inhibition of intercellular adhesion molecule-1 (ICAM-1) binding to recombinant LFA-1, range (6-12).
For assay [11], the target named is T1, Intercellular adhesion molecule (ICAM-1), Integrin alpha-L/beta-2. Kind of assay: Inhibition of LFA-1 mediated JY-8 cell adhesion to ICAM-1, range (2-2). The class given is functional, cell-based.
Assay [12] deals with T2, Integrin alpha-L. Kind of assay: Inhibition of intercellular adhesion molecule-1 (ICAM-1) binding to recombinant LFA-1, range (4-7).
Assay [13] concerns the target T2, Integrin alpha-L. Kind of assay: Inhibition of intercellular adhesion molecule-1 (ICAM-1) binding to recombinant LFA-1, range (3700-3800).
Assay [14] deals with T2, Integrin alpha-L. Kind of assay: Inhibition of intercellular adhesion molecule-1 (ICAM-1) binding to recombinant LFA-1, range(100-110).
The target in assay [15] is T2, Integrin alpha-L. Kind of assay: Inhibition of intercellular adhesion molecule-1 (ICAM-1) binding to recombinant LFA-1, range (10400-11300).
The target of assay [16] is T2, Integrin alpha-L. Kind of assay: Inhibition of intercellular adhesion molecule-1 (ICAM-1) binding to recombinant LFA-1, range (5-8).
For assay [17], the target named is T2, Integrin alpha-L. Kind of assay: Inhibition of intercellular adhesion molecule-1 (ICAM-1) binding to recombinant LFA-1, range (80-110).
In assay [18] the target is T1, Intercellular adhesion molecule (ICAM-1), Integrin alpha-L/beta-2. Kind of assay: Inhibition of LFA-1 mediated JY-8 cell adhesion to ICAM-1, range (6-10). The class given is functional, cell-based.
In assay [19] the target is T2, Integrin alpha-L. Kind of assay: Inhibition of intercellular adhesion molecule-1 (ICAM-1) binding to recombinant LFA-1, range(6-9).

pIC50: −log10 of the molar value.

For orientation: pIC50 means the negative decadic logarithm of the IC50, by convention in mol/L.

T1 sequence (P05362 whole entry, one chain of several, further chain): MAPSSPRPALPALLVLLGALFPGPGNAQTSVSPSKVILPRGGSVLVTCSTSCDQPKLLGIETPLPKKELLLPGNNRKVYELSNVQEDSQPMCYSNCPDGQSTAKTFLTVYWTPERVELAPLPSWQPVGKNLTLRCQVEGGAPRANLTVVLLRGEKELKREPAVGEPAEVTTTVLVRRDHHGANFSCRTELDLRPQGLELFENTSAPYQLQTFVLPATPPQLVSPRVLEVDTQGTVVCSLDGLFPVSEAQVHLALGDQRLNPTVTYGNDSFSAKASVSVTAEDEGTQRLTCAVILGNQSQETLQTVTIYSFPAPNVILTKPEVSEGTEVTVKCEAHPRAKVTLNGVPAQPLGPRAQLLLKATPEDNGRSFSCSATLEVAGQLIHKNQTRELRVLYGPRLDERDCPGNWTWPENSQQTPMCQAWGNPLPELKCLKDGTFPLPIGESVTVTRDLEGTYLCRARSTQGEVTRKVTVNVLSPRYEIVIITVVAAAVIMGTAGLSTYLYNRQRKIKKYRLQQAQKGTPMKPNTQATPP
T1 sequence (P05107 whole entry, one chain of several): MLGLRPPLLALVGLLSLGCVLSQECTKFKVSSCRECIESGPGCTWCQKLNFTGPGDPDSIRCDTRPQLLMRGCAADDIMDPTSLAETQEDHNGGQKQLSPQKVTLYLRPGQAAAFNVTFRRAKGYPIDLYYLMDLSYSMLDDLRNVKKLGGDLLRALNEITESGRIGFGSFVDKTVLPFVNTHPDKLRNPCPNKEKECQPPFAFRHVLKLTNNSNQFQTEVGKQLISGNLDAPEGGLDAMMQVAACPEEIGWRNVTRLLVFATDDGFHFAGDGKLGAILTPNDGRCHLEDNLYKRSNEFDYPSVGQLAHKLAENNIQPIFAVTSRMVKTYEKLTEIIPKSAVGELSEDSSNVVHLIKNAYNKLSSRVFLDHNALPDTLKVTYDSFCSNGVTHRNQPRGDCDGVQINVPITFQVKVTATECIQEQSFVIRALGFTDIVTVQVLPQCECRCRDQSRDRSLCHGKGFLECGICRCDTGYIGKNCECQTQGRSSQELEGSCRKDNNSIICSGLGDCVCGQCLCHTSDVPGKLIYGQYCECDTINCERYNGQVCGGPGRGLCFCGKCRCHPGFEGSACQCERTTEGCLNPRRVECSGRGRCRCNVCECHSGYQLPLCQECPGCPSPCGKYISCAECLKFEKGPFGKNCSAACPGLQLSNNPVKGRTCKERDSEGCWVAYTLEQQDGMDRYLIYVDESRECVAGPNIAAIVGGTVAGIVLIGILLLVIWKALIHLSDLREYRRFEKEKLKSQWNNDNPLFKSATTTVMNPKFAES

For `COc1ccccc1Sc1ccc(/C=C/C(=O)N2CCOCC2)c(C(F)(F)F)c1Cl`, the pIC50 in [1] is 8.30; in assay [2], 8.10.
As for `O=C(O)C1CCN(C(=O)/C=C/c2ccc(Sc3ccc4c(c3)OCCO4)c(Cl)c2Cl)CC1`, the negative logarithm of the IC50 (pIC50) was 8.22 in assay [3] and 8.15 in assay [4].
On to `COc1ccccc1Sc1cc(C)c(/C=C/C(=O)N2CCC(C(=O)O)CC2)cc1Cl`, for which the pIC50 in assay [5] is less than 4.70.
Take `O=C(O)C1CCN(C(=O)/C=C/c2ccc(Sc3ccc4c(c3)OCCO4)c(Cl)c2)CC1`: the pIC50 in [6] was 6.84.
As for `CC(=O)N1CCN(C(=O)/C=C/c2ccc(Sc3ccc4c(c3)OCCO4)c(C(F)(F)F)c2)CC1`, the pIC50 in assay [7] was 7.26; in assay [8], 7.22.
For the compound `COc1ccccc1Sc1ccc(/C=C/C(=O)N2CCC(C(=O)O)CC2)c(Cl)c1Cl`, the pIC50 in assay [9] and in assay [10] was 8.10 in each case.
As for `O=C(O)C1CCN(C(=O)/C=C/c2ccc(Sc3ccc4c(c3)OCCO4)c(Cl)c2C(F)(F)F)CC1`, the negative-log IC50 (pIC50) was 8.70 in assay [11] and 8.30 in assay [12].
Turning to `COc1ccccc1Sc1ccc(/C=C/C(=O)N2CCC(C(=O)O)CC2)c(C)c1`, the pIC50 in assay [5] was less than 4.70.
Still for that read-out and setting: the figure for `COc1ccccc1Sc1cc(Cl)c(/C=C/C(=O)N2CCC(C(=O)O)CC2)cc1Cl` is less than 4.70.
With `CC(=O)N1CCN(C(=O)/C=C/c2ccc(Sc3cccc(Cl)c3Cl)c(S(=O)(=O)N(C)C)c2)CC1`, in assay [13], the pIC50 is 5.43.
Take `CC(=O)N1CCN(C(=O)/C=C/c2ccc(Sc3cccc(Cl)c3Cl)c([N+](=O)[O-])c2)CC1`: the pIC50 in [14] is 6.98.
For `O=C(O)C1CCN(C(=O)/C=C/c2cc(Cl)c(Sc3ccc4c(c3)OCCO4)c(C(F)(F)F)c2)CC1`, the pIC50 in assay [5] is less than 4.70.
For the compound `COc1ccccc1Sc1ccc(/C=C/C(=O)N2CCN(C(C)=O)CC2)cc1OC`, in assay [15], the pIC50 is 4.97.
`COc1ccccc1Sc1ccc(/C=C/C(=O)N2CCC(C(=O)O)CC2)c(C(F)(F)F)c1Cl`: the pIC50 in assay [16] was 8.22; in assay [3], 8.40.
For the compound `COc1ccccc1Sc1ccc(/C=C/C(=O)N2CCOCC2)c(C)c1C`, the pIC50 in [17] was 7.05.
For the compound `CC(=O)N1CCN(C(=O)/C=C/c2ccc(Sc3ccc4c(c3)OCCO4)c(Cl)c2Cl)CC1`, the pIC50 in [18] was 8.10; in assay [19], 8.15.

The values are drawn from ChEMBL document CHEMBL1134304, “Discovery of novel p-arylthio cinnamides as antagonists of leukocyte function-associated antigen-1/intercellular adhesion molecule-1 interaction. 4. Structure-activity relationship of substituents on the benzene ring of the cinnamide” (J Med Chem, 2001).
